Patent publication US20100055169A1, “CATIONIC LIPIDS AND USES THEREOF” (ABBOTT LABORATORIES, priority 2008, published 2010)

Key:
[1] = test system: β-galactosidase in tumor sections; test: IHC analysis of β-galactosidase staining in intraliver tumors after i.v. dosing of Lipid-Based Particles; format: in vivo, Scid female mice; settings: intraliver tumor model, Scid mice, tail vein (i.v) injection
Protocol: The animal studies were carried out in accordance with internal Institutional Animal Care and Use Committee (IACUC) guidelines at Abbott Laboratories. Scid female mice at 6 to 8 weeks of age were obtained from Charles River Laboratory and used for […] tumor models. Mouse livers were exposed by vertical incision on mouse abdomens and the tumor cells were directly injected into the livers. The incision was closed by suture and wound clips. All cell lines used for creating xenograft tumors were subjected to the IMPACT profile I test (18 agents) at the University of Missouri Research Animal Diagnostic and Investigative Laboratory, and all cell lines were found negative for the 18 infectious agents tested. Tumor cells were suspended in a 1:1 mixture of S-MEM (Invitrogen, Carlsbad, Calif.) and matrigel (BD Bioscience, San Jose, Calif.) and inoculated at 1×10E6 cells per animal. Treatments were started 3 4 weeks after tumor inoculation. Formulated or unformulated siRNAs were administrated via tail vein (i.v) injection. IHC was carried out as previously described [Li, L., et al., Evaluating hypoxia-inducible factor-1alpha as a cancer therapeutic target via inducible RNA interference in vivo. Cancer Res, 2005. 65(16): p. 7249-58]. Briefly, tumors were excised, cut into pieces of less than 3 mm in thickness and immediately fixed in buffered formalin solution with neutral pH (Sigma, St. Louis, Mo.). The formalin-fixed and paraffin-embedded tumor sections were then used for staining. The mouse anti-β-galactosidase mAb (Promega, Madison, Wis.) was used to detect β-galactosidase in tumor sections. […] IHC images were acquired using the Nikon TE2000 inverted microscope. The β-galactosidase staining was evaluated by 2 people independently based on the scoring system listed below. The average of the score was calculated for each tumor.

[2] = RiboGreen assay of siRNA encapsulation efficiency, in vivo formulations of Lipid-Based Particles; format: physicochemical; settings: lipid:siRNA 25:1
Protocol: (§1) RNA concentration and encapsulation efficiency were determined using a Quant-iT® Ribogreen RNA reagent and kit available from Invitrogen. The siRNA was released from the Lipid-Based Particle using one of the following reagents: ethanol, Triton X-100, or phenol/chloroform. The siRNA concentration is quantified using fluorescent reading at 480 nm/520 nm.
The lipid solution was prepared (10 mg/ml) by dissolving the lipid in 200 proof ethanol. The lipid mixture solution is prepared according to the above composition in Table 5.
An siRNA (TetR_ODC—12, G.G.G.G.A.A.A.G.C.U.G.G.C.A.A.G.A.U.U.U.U SEQ ID NO: 1) (ThermoFisher) solution is prepared in a concentration of 10 mg/ml by dissolving 10 mg siRNA in 1 ml of DNAse/RNAse-free distilled water.
(§2) A round bottom flask was submerged into a 65° C. water bath. Citrate buffer (37.5 ml) of pH 4.0 was pipetted into the flask. The solution was stirred by a magnetic stirring bar at a speed of 900 rpm. Both the pH 4.0 citrate buffer and the lipid solution were pre-warmed in the 65° C. water bath for about 3 minutes. A siRNA solution (0.5 ml) was pipetted into the pH 4.0 citrate buffer. The 12.5 ml lipid mixture solution was injected through a 27 gauge needle into the citrate buffer in about 30 seconds. The needle tip was inserted into the solution during the injection. The resulting solution was stirred for 5 minutes at a speed of 900 rpm. The flask was pulled up from the water bath and a 50 ml pH 7.4 PBS buffer was added into the flask. The final solution was further mixed at a speed of 900 rpm for 5 minutes. For the diafiltration process, a dialysis filter (Millipore, 100K, Cat#PXB100C50) was used to remove ethanol in the above solution. When the volume was reduced to 20 ml during the initial diafiltration, 20 ml of pH 7.4 PBS was added to the sample solution. The diafiltration was continued until the volume was reduced to 20 ml. The diafiltration process was repeated 4 times. The volume of the sample solution was reduced to about 12 ml and pH 7.4 PBS was added to make the final volume of 15 ml. The 15 ml solution was filtered sequentially through the 0.45 and 0.22 μm sterile PVDF membrane filters (Millipore) and immediately transferred into a sterile vial.

[3] = Particle sizing by dynamic light scattering (DynaPro plate reader), in vitro formulations; format: physicochemical; settings: lipid:siRNA 25:1
Protocol: (§3) The siRNA concentrations were measured using Quanti-iT RiboGreen RNA reagent (Molecular Probes, (R11490)). Vesicle sizes were characterized by dynamic light scattering with a DynaPro™ Plate Reader (Wyatt Technology) in 96-well half-area UV plate (Coring) after diluting the formulation sample (20 μL) in phosphate buffered saline (80 μL) at a pH of about 7-8. A 1% agarose gel-based assay was used for analyzing nuclease degradation and protection. Encapsulation efficiency (EE) was calculated using data obtained from a RiboGreen assay.
Particle sizes and size distributions (PDI) were characterized by using dynamic light scattering (DLS). A DLS plate reader (Dynapro™, Wyatt Technology) was used for the DLS measurement. This DLS plate reader uses an 830 nm laser and the scattering angle is 158°. It also can control temperature from 4° C. to 70° C. A 96-well format was employed for the samples.
Samples for DLS analysis were prepared by mixing 20 μL of each sample stock solution with 80 μL PBS directly in the 96-well plate (#3697, Corning). Sample mixing was accomplished using a microplate shaker (Orbis, Mikura Ltd.). Plates were read at 20° C. with an acquisition time of 50 seconds for each sample, and data was analyzed with Wyatt Technology's Dynamics V6 software. To rule out potential multiple scattering artifacts, a second plate at 4-fold reduced sample concentrations was independently prepared by mixing 5 μL stock solutions with 95 μL PBS. Under our experimental conditions the results at the two concentrations were very similar, and the final reported result for each sample represents the average of values obtained from the two plates.

[4] = Particle sizing assay (Zetasizer Nano ZS), in vivo formulations; format: physicochemical; settings: lipid:siRNA 25:1
Protocol: as §2
For measurements of particle sizes and size distributions (PDI), lipid-based particles were prepared as described above. The particle solution (60 μL) was pipetted into a disposable cuvette (UVette, Eppendorf, cat#952010051) and measured in the “General Purpose” mode. Attenuator and position were optimized by the device. Measurements were performed using a Zetasizer Nano ZS (Malvern Instruments) equipped with a 4 mW He—Ne laser at a wavelength of 633 nm at 25° C. Scattered light was detected at a 173° backward scattering angle. The viscosity and refractive index of water at 25° C. was used for data analysis with the Dispersion Technology Software 5.00 (Malvern Instruments).

[5] = RiboGreen assay of siRNA encapsulation efficiency, in vitro formulations of Lipid-Based Particles; format: physicochemical; settings: lipid:siRNA 25:1
Protocol: The mixing solution of cationic lipids, cholesterol, non-cationic lipids and PEG-lipids was prepared in ethanol (total concentration at 10 mg/mL). siSTABLE (purchased from ThermoFisher) (sense-5′ GGGGAAAGCUGGCAAGAUUUU-3′SEQ ID NO. 1, antisense-5′-AAUCUUGCCAGCUUUCCCCUU-3′ SEQ ID NO: 2) % stock solution was prepared in 10 mg/mL of solution by dissolving 10 mg siRNA in 1 mL of RNAse-free UltraPure Water. The calculated amount of siRNA solution was added to 1 mL of citrate buffer (pH 4.0, 20 mM), to provide an siRNA concentration of 0.2 mg/mL, and warmed to 60 C. The calculated amount of lipid solution was warmed to 60 C, transferred to a 0.5 mL syringe with 28½ gauge needle, and injected into the citrate buffer with stirring at 60 C. After 3 minutes, 3 mL of PBS solution at room temperature (pH 7.4) was added into the lipid mixture with stirring. The Lipid-Based Particle solution was cooled to room temperature.
as §3, §1

[6] = in vivo formulation A: Cationic lipid/Example 73/DSPC/Chol 45/10/15/30 wt %
[7] = in vitro formulation b: Cationic lipid/PEG-cholesterol/DSPC/Chol 45/10/15/30 wt %
[8] = in vivo formulation I: Cationic lipid/PEG-DPPE/DSPC/Chol 45/10/15/30 wt %
[9] = in vivo formulation J: Cationic lipid/PEG-DSPE/DSPC/Chol 45/10/15/30 wt %
[10] = in vivo formulation L: Cationic lipid/PEG-DPG/DSPC/Chol 45/10/15/30 wt %
[11] = in vivo formulation C: Cationic lipid/Pal-PEG-Cera/DSPC/Chol 45/10/15/30 wt %
[12] = in vitro formulation a: Cationic lipid/Example 73/DSPC/Chol 45/10/15/30 wt %

Compound	% Encapsulation Efficiency [2, 6]	Size [3, 7]	Size [4, 6]	Size distribution (PDI) [4, 6]	% Encapsulation Efficiency [5, 7]	also measured
C[C@H]1c2cccc(O)c2C(=O)C2=C(O)[C@]3(O)C(=O)C(C(N)=O)=C(O)[C@@H](N(C)C)[C@@H]3[C@@H](O)[C@@H]21 [Doxycycline]	–	–	–	–	–	In vivo response: β-galactosidase IHC staining score ([1]; column 1): +++ (there was 80% of the section with strong straining); In vivo response: β-galactosidase IHC staining score ([1]; column 2): +++ (there was 80% of the section with strong straining); In vivo response: β-galactosidase IHC staining score ([1]; column 3): +++ (there was 80% of the section with strong straining); In vivo response: β-galactosidase IHC staining score ([1]; column 4): +++ (there was 80% of the section with strong straining); In vivo response: β-galactosidase IHC staining score ([1]; column 5): +++ (there was 80% of the section with strong straining); In vivo response: β-galactosidase IHC staining score ([1]; column 6): +++ (there was 80% of the section with strong straining)
CCCCC/C=C\C/C=C\CCCCCCCCOCC(CCN1CCCCC1)OCCCCCCCC/C=C\C/C=C\CCCCC (centres unmarked) [Example 1, 1-{3,4-bis[(9Z,12Z)-octadeca-9,12-dienyloxy]butyl}piperidine]	74%	96.3 nm	108 nm	(0.18)	–	–
CCCCC/C=C\C/C=C\CCCCCCCCOCC(CCN(C)CCOC)OCCCCCCCC/C=C\C/C=C\CCCCC (centres unmarked) [Example 7, N-(2-methoxyethyl)-N-methyl-3,4-bis[(9Z,12Z)-octadeca-9,12-dienyloxy]butan-1-amine]	74%	123.2 nm	140 nm	(0.15)	96.9%	–
CCCCC/C=C\C/C=C\CCCCCCCCOCC(CCN(C)CCN(C)C)OCCCCCCCC/C=C\C/C=C\CCCCC (centres unmarked) [Example 9, N-{3,4-bis[(9Z,12Z)-octadeca-9,12-dienyloxy]butyl}-N,N′,N′-trimethylethane-1,2-diamine]	87.5%	105.8 nm	160 nm	(0.19)	88.3%	% Encapsulation Efficiency [2, 8]: 98%; % Encapsulation Efficiency [2, 9]: 98%; % Encapsulation Efficiency [2, 10]: 98%; Size [4, 8]: 93.4 nm; Size distribution (PDI) [4, 8]: (0.069); Size [4, 9]: 98.1 nm; Size distribution (PDI) [4, 9]: (0.078); Size [4, 10]: 98.7 nm; Size distribution (PDI) [4, 10]: (0.056)
CCCCC/C=C\C/C=C\CCCCCCCCOCC(CCN1CCC(N(C)C)C1)OCCCCCCCC/C=C\C/C=C\CCCCC (centres unmarked) [Example 17, 1-{3,4-bis[(9Z,12Z)-octadeca-9,12-dienyloxy]butyl}-N,N-dimethylpyrrolidin-3-amine]	–	114.4 nm	149 nm	(0.21)	86.2%	% Encapsulation Efficiency [2, 11]: 97%; Size [4, 11]: 101 nm; Size distribution (PDI) [4, 11]: (0.154)
CCCCC/C=C\C/C=C\CCCCCCCCOC[C@@H](CCN1CCCC1)OCCCCCCCC/C=C\C/C=C\CCCCC [Example 20, 1-{(3R)-3,4-bis[(9Z,12Z)-octadeca-9,12-dienyloxy]butyl}pyrrolidine]	–	–	100 nm	(0.09)	–	% Encapsulation Efficiency [5, 12]: 97.2%; Size [3, 12]: 146 nm
CCCCC/C=C\C/C=C\CCCCCCCCOC[C@H](CCN1CCCC1)OCCCCCCCC/C=C\C/C=C\CCCCC [Example 21, 1-{(3S)-3,4-bis[(9Z,12Z)-octadeca-9,12-dienyloxy]butyl}pyrrolidine]	–	–	103 nm	(0.06)	–	% Encapsulation Efficiency [5, 12]: 96.9%; Size [3, 12]: 128 nm
